Values quoted from earlier work as cited in patent EP0547334A1, “Combination of calcium antagonists with cholinesterase inhibitors for the treatment of senile demention” (priority 1991, dated 1993).

Test system: Ratten
Conditions: Metrifonat 1 mg/kg alone, oral, rats; literature statement (Schmidt, de Jonge 1991)

COP(=O)(OC)C(O)C(Cl)(Cl)Cl (stereo not shown) [Metrifonat]
Wirkung: keine Wirkung
